The values below come from patent publication US12595230B2, “Substituted 6,7-dihydro-5H-benzo[7]annulene compounds and their derivatives, processes for their preparation and therapeutic uses thereof” (Sanofi, priority 2020, dated 2026).

This test deals with T1, ERα (Homo sapiens, UniProt P03372).
T1 construct: host or cells: MCF7
T1 sequence (P03372 1-595): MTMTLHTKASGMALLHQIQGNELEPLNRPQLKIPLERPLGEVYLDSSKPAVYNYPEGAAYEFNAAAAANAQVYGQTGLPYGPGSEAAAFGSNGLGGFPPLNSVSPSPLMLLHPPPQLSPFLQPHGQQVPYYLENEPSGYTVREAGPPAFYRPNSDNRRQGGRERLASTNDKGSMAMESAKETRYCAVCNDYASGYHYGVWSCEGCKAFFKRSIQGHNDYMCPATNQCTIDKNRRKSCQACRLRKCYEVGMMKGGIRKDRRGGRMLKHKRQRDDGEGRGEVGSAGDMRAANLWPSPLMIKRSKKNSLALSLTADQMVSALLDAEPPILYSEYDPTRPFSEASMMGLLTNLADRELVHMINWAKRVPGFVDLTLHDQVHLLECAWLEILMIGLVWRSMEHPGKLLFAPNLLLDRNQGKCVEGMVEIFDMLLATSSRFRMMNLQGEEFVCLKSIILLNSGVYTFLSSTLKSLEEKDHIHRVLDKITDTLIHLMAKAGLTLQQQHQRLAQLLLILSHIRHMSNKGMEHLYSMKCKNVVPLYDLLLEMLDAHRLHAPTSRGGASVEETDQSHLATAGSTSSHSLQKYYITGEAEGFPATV
Nature of the test: Estrogen receptor degradation activity: breast cancer cell ERα in cell western assay (MCF7 cells). The test is classed as cell-based. The following applies: for % Degradation At 0.3 μM: 4 hours, relative to fulvestrant 0.1 μM positive control; for DC50: 4 hours post compound addition, concentration which degrades 50% of the estrogen receptor, read-out: Degradation IC50. Here is the method: Test: Estrogen Receptor Degradation Activity Said test involves measuring the in vitro degradation activity of the compounds of the Table 1a. The measurements of the degradation activities were made using a breast cancer cell ERα in cell western assay as described hereunder. MCF7 cells (ATCC) were seeded in 384 wells microplate (collagen coated) at a concentration of 10000 cells/30 μL per well in red phenol free MEM alpha medium (invitrogen) containing 5% charcoal dextran striped FBS. The following day, 9 points serial 1:5 dilution of each compound was added to the cells in 2.5p L at final concentrations ranging from 0.3-0.0000018 μM (in table 2), or 0.1 μM for fulvestrant (using as positive control). At 4 hours post compound addition the cells were fixed by adding 25 μL of formalin (final concentration 5% formalin containing 0.1% triton) for 10 minutes at room temperature and then washed twice with PBS. Then, 50 μL of LI-COR blocking buffer containing 0.1% Triton was added to plate for 30 minutes at room temperature. LI-COR blocking buffer was removed and cells were incubated overnight at cold room with 50 μL anti-ER rabbit monoclonal antibody (Thermo scientific MA1-39540) diluted at 1:1000 in LI-COR blocking buffer containing 0.1% tween-20. Wells which were treated with blocking buffer but no antibody were used as background control. Wells were washed twice with PBS (0.1% tween-20) and incubated at 37° C. for 60 minutes in LI-COR (0.1% tween-20) containing goat anti-rabbit antibody Alexa 488 (1:1000) and Syto-64 a DNA dye (2 μM final concentration). Cells were then washed 3 times in PBS and scanned in ACUMEN explorer (TTP-Labtech). Integrated intensities in the green fluorescence and red fluorescence were measured to determine the levels of ERα and DNA respectively. The degradation activity with respect to estrogen receptors in this test is given by the concentration which degrades 50% of the estrogen receptor (or IC50) in nM. […] DMSO−fulvestrant)).

In the case of `O=C(O)c1ccc2c(c1)CCCC(c1cccc(Cl)c1Cl)=C2c1ccc(CC2CN(CCCF)C2)cc1` [Example 19, 8-(2,3-dichlorophenyl)-9-(4-((1-(3-fluoropropyl)azetidin-3-yl)methyl)phenyl)-6,7-dihydro-5H-benzo[7]annulene-3-carboxylic acid], the “% Degradation At 0.3 μM” value is listed as 91% and the DC50 stood at 300 pM.

Turning to `O=C(O)c1ccc2c(c1)CCCC(c1cccc(CO)c1)=C2c1ccc(CC2CN(CCCF)C2)cc1` [Example 320, 9-(4-((1-(3-fluoropropyl)azetidin-3-yl)methyl)phenyl)-8-(3-(hydroxymethyl)phenyl)-6,7-dihydro-5H-benzo[7]annulene-3-carboxylic acid], the “% Degradation At 0.3 μM” value was found to be 80% and the DC50 turned out to be 110000 pM.

As for `Cl.O=C(O)c1ccc2c(c1)CCCC(c1ccc(F)c3c1CCC3)=C2c1ccc(CC2CN(CCCF)C2)cc1` [Example 55, 8-(7-fluoro-2,3-dihydro-1H-inden-4-yl)-9-(4-((1-(3-fluoropropyl)azetidin-3-yl)methyl)phenyl)-6,7-dihydro-5H-benzo[7]annulene-3-carboxylic acid hydrochloride], the “% Degradation At 0.3 μM” value is on record as 93% and the DC50 amounted to 500 pM.

`CCOC(c1ccc(C2=C(c3ccc(Cl)cc3Cl)CCCc3cc(C(=O)O)ccc32)cc1)C1CN(CCCF)C1` (single isomer, unassigned; isomer 1) [Example 229, 8-(2,4-dichlorophenyl)-9-(4-(ethoxy(1-(3-fluoropropyl)azetidin-3-yl)methyl)phenyl)-6,7-dihydro-5H-benzo[7]annulene-3-carboxylic Acid Isomer 1]: the “% Degradation At 0.3 μM” value is on record as 77% and the DC50 is 600 pM.

In the case of `Cc1c(C(=O)O)ccc2c1CCCC(c1ccc(Cl)cc1Cl)=C2c1ccc(CC2CN(CCCF)C2)cc1.Cl` [Example 250, 8-(2,4-dichlorophenyl)-9-(4-((1-(3-fluoropropyl)azetidin-3-yl)methyl)phenyl)-4-methyl-6,7-dihydro-5H-benzo[7]annulene-3-carboxylic acid hydrochloride], the “% Degradation At 0.3 μM” value worked out at 90% and the DC50 worked out at 600 pM.

Consider `O=C(O)c1ccc2c(c1)CCCC(C1=CC3(C1)CC(F)(F)C3)=C2c1ccc(CC2CN(CCCF)C2)cc1` [Example 50, 8-(6,6-difluorospiro[3.3]hept-1-en-2-yl)-9-(4-((1-(3-fluoropropyl)azetidin-3-yl)methyl)phenyl)-6,7-dihydro-5H-benzo[7]annulene-3-carboxylic acid], for which the “% Degradation At 0.3 μM” value stood at 88% and the DC50 was 10500 pM.

On to `Cc1ccc(C2=C(c3ccc(CC4CN(CCCF)C4)cc3)c3ccc(C(=O)O)cc3CCC2)c(F)c1F.Cl` [Example 210, 8-(2,3-difluoro-4-methylphenyl)-9-(4-((1-(3-fluoropropyl)azetidin-3-yl)methyl)phenyl)-6,7-dihydro-5H-benzo[7]annulene-3-carboxylic acid hydrochloride], for which the “% Degradation At 0.3 μM” value amounted to 88% and the DC50 turned out to be 300 pM.

For the molecule `Cl.O=C(O)c1ccc2c(c1)CCCC(c1ccc(Cl)cc1Cl)=C2c1ccc(C2(C3CN(CCCF)C3)CC2)cc1` [Example 215, 8-(2,4-dichlorophenyl)-9-(4-(1-(1-(3-fluoropropyl)azetidin-3-yl)cyclopropyl)phenyl)-6,7-dihydro-5H-benzo[7]annulene-3-carboxylic acid hydrochloride], the “% Degradation At 0.3 μM” value is reported as 67% and the DC50 is 300 pM.

On to `CCC1CCc2cc(C(=O)O)ccc2C(c2ccc(CC3CN(CCCF)C3)cc2)=C1c1ccc(Cl)cc1` (single isomer, unassigned) [Example 330, 8-(4-chlorophenyl)-7-ethyl-9-(4-((1-(3-fluoropropyl)azetidin-3-yl)methyl)phenyl)-6,7-dihydro-5H-benzo[7]annulene-3-carboxylic acid], for which the “% Degradation At 0.3 μM” value came out at 91% and the DC50 came to 7000 pM.

`Cc1c(Cl)cccc1C1=C(c2ccc(CC3CN(CCC(F)(F)F)C3)cc2)c2ccc(C(=O)O)cc2CCC1` [Example 260, 8-(3-chloro-2-methylphenyl)-9-(4-((1-(3,3,3-trifluoropropyl)azetidin-3-yl)methyl)phenyl)-6,7-dihydro-5H-benzo[7]annulene-3-carboxylic acid]: the “% Degradation At 0.3 μM” value came to 86% and the DC50 came to 600 pM.

Consider `O=C(O)c1cc2c(cc1F)C(c1ccc(CC3CN(CCCF)C3)cc1)=C(c1ccc(Cl)cc1Cl)CCC2` [Example 206, 8-(2,4-dichlorophenyl)-2-fluoro-9-(4-((1-(3-fluoropropyl)azetidin-3-yl)methyl)phenyl)-6,7-dihydro-5H-benzo[7]annulene-3-carboxylic acid], for which the “% Degradation At 0.3 μM” value was 86% and the DC50 stood at 400 pM.

As to `CC(O)(c1ccc(C2=C(c3ccc(Cl)cc3Cl)CCCc3cc(C(=O)O)ccc32)cc1)C1CN(CCCF)C1.Cl` (single isomer, unassigned; isomer 2) [Example 236, 8-(2,4-dichlorophenyl)-9-(4-(1-(1-(3-fluoropropyl)azetidin-3-yl)-1-hydroxyethyl)phenyl)-6,7-dihydro-5H-benzo[7]annulene-3-carboxylic Acid, Hydrochloride Isomer 2], the “% Degradation At 0.3 μM” value is recorded as 100% and the DC50 was determined as 400 pM.

Regarding `O=C(O)c1ccc2c(c1)CCCC(Cc1ccccc1)=C2c1ccc(CC2CN(CCCF)C2)cc1` [Example 311, 8-benzyl-9-(4-((1-(3-fluoropropyl)azetidin-3-yl)methyl)phenyl)-6,7-dihydro-5H-benzo[7]annulene-3-carboxylic acid], the “% Degradation At 0.3 μM” value is recorded as 73% and the DC50 stood at 9000 pM.

Take `O=C([O-])c1ccc2c(c1)CCCC(c1cc(C(F)F)ccc1F)=C2c1ccc(CC2CN(CCCF)C2)cc1.[Na+]` [Example 273, sodium 8-(5-(difluoromethyl)-2-fluorophenyl)-9-(4-((1-(3-fluoropropyl)azetidin-3-yl)methyl)phenyl)-6,7-dihydro-5H-benzo[7]annulene-3-carboxylate]: the “% Degradation At 0.3 μM” value is recorded as 89% and the DC50 was found to be 600 pM.

In the case of `Cl.O=C(O)c1ccc2c(c1)CCCC(c1ccc(C(F)(F)F)cc1)=C2c1ccc(CC2CN(CCCF)C2)cc1` [Example 318, 9-(4-((1-(3-fluoropropyl)azetidin-3-yl)methyl)phenyl)-8-(4-(trifluoromethyl)phenyl)-6,7-dihydro-5H-benzo[7]annulene-3-carboxylic acid hydrochloride], the “% Degradation At 0.3 μM” value turned out to be 94% and the DC50 amounted to 600 pM.

Take `O=C(O)c1ccc2c(c1)CCCC(c1ccc(Cl)cc1C(F)(F)F)=C2c1ccc(CC2CN(CCCF)C2)cc1` [Example 27, 8-(4-chloro-2-(trifluoromethyl)phenyl)-9-(4-((1-(3-fluoropropyl)azetidin-3-yl)methyl)phenyl)-6,7-dihydro-5H-benzo[7]annulene-3-carboxylic acid]: the “% Degradation At 0.3 μM” value is 94% and the DC50 was 500 pM.

For `Cc1c(F)ccc(C2=C(c3ccc(CC4CN(CCCF)C4)cc3)c3ccc(C(=O)O)cc3CCC2C)c1C` (racemic) [Example 309, 8-(4-fluoro-2,3-dimethylphenyl)-9-(4-((1-(3-fluoropropyl)azetidin-3-yl)methyl)phenyl)-7-methyl-6,7-dihydro-5H-benzo[7]annulene-3-carboxylic acid], the “% Degradation At 0.3 μM” value is 88% and the DC50 came out at 400 pM.

With `O=C(O)c1c(F)cc2c(c1F)CCCC(c1ccc(F)cc1Cl)=C2c1ccc(CC2CN(CCCF)C2)cc1` [Example 216, 8-(2-chloro-4-fluorophenyl)-2,4-difluoro-9-(4-((1-(3-fluoropropyl)azetidin-3-yl)methyl)phenyl)-6,7-dihydro-5H-benzo[7]annulene-3-carboxylic acid], the “% Degradation At 0.3 μM” value is on record as 83% and the DC50 was 13200 pM.
